Experiments:
[1] = target: DGKalpha (hDGKalpha(1-735)-N-His) (Homo sapiens (Human), UniProt P23743); experiment: In vitro DGK inhibition assay, ADP-Glo (in house), DGKalpha; assay type: biochemical; details: DLG liposomes, 25 μM ATP, 4 nM enzyme, 1 hour reaction
Description: (§1) DGK α and ζ kinases use ATP to phosphorylate the substrate 1,2-dilauroyl-sn-glycerol (DLG, incorporated in the liposomes). ATP is converted to ADP as a result of this enzymatic reaction.
(§2) After the kinase reaction, an ATP-depletion reagent is added to terminate the kinase reaction and deplete any remaining ATP, leaving only ADP. Second, a detection reagent is added to simultaneously convert ADP to ATP and allow the newly synthesized ATP to be converted to light using a coupled luciferase/luciferin reaction.
(§3) Purification of both enzymes was performed as previously described by Takahashi et al., PeerJ, 2018 (Takahashi, D.; Sakane, F. Expression and purification of human diacylglycerol kinase alpha from baculovirus-infected insect cells for structural studies. PeerJ 2018, 6, No. e5449).
(§4) A concentrated liposome solution was prepared in assay buffer without DTT and BSA: 2 mM of DLG in 21 mM of total liposome (2 mM DLG/8 mM PS/11 mM PC). The reaction mixtures contain the assay buffer with a final DLG concentration of 125 uM ATP concentrations of 25 μM (for DGKA assay) or 50 μM (for DGKZ assay). The reactions were started by addition of DGK α and ζ kinases at 4 nM and 2 nM final concentrations, respectively. After 1 hour reaction, the amount of ADP formed was detected with the ADP-Glo kinase assay (Promega) according to the manufacturer instructions. Compounds were added in 11-points dose response, starting at […], 1:3 dilutions, with a final DMSO concentration of 2%. The multidrop combi was used as a liquid handler and luminescence was read with 0.5 s by the envision reader (PE).

[2] = target: DGKzeta (hDGKzeta(1-928)-N-His) (Homo sapiens (Human), UniProt Q13574); experiment: In vitro DGK inhibition assay, ADP-Glo (in house), DGKzeta; assay type: biochemical; details: DLG liposomes, 50 μM ATP, 2 nM enzyme, 1 hour reaction
Description: as §1, §2, §3, §4

primary human T-cells [3] = experiment: IL2 secretion measurements in CD3-stimulated T-cells; assay type: cell-based; details: CD3 condition; for Emax IL2 (% activation): 24 hours, 20 μM reference compound A1 = 100%; for EC50: IL2 secretion after 24 hours, read-out: Tcell IL2 CD3 EC50
Description: As readouts for T-cell activation, 1L2 secretion after 24 hours and proliferation after 5 days was measured. Increases in 1L2 secretion and proliferation upon compound treatment were assessed as the % of the maximum of reference compound A1. WO 2016/139181 discloses reference compound A1 as example 70. As a counter screen and to make sure that no unwanted TCR-independent activation was triggered, PBS conditions were run for all compounds.
Expanded primary human T-cells were thawed and cultured in RPMI 1640 (Gibco, #61870-010)+5% human serum (HS, Sigma, #H3667)+1 mM Sodium Pyruvate (Gibco, #11360-039)+50 μM 2-mercaptoethanol (Gibco, #31350-010) and 1× Pen-Strep (Life Technologies, #15140122) medium at density of 2 Mio/ml for 3 hours in 5% CO2, 37° C. and 95% humidity. For coating of plates, […] or PBS++ with CD3 antibody (concentration depending on donor and determined by CD3 titrations) was added 100 μl/well to Poly-D Lysine coated 96-well plates. Plates were sealed and incubated at room temperature for 3 hours on a table-top rocking platform. After incubation, plates were washed once with PBS−− and filled with 40 μl/well culture medium only. Compounds were then added (see next section) to medium only plates. After 3 hours of culturing the T-cells, cells were filtered through a cell strainer (Miltenyi Biotech, #130-041-407), counted again and concentration was adjusted to 1.25 Mio/ml.
Cells were then seeded 80 μl/well to the 40 μl/well including dispensed compounds according to plate layout. By adding cells, compounds were further diluted 1:3, and resulting in 100 k cells/120 μl/well. After 24 hours 40 μl of supernatant was collected carefully from the top while not disturbing the cells and transferred into a round bottom 96 well plate. Collected and frozen supernatant was used for detection of IL2 using the IL-2 Human ProQuantum Immunoassay Kit (Invitrogen) or using the Human IL-2 ELISA Kit (Thermo Fisher).
(§5) Compounds were added in a 5 or 6 pt dose response with the Tecan D300e Digital Dispenser, all conditions 3 times more concentrated than the end-concentration, since cells are added afterwards (80 μl cells to 40 μl prepared medium with treatment). The DR was starting at 20 μM or 10 μM final top concentration and a dilution factor of 3.333. The positive control was the reference compound A1 that was added in a dose response as well, additionally to 3 wells of only 20 μM representing the positive stimulator control. All wells were normalized with DMSO to a final concentration of 0.6% (0.2% end-concentration).
The immunoassay is done following the manufacturer's manual (Invitrogen, #A35603). Additional information: For the immunoassay, MicroAmp™ EnduraPlate™ Optical 384-Well plates are used. Frozen supernatant is thawed and centrifuged for 5 minutes at 1000×g, both steps at 4° C. After centrifugation, required sample amount is taken from the top, and in a separate LightCycler V-bottom plate (working plate) diluted with assay dilution buffer, dilution factor depending on the PBS or CD3 condition but at least 1:3. IL-2 standard and blanks are prepared in the same V-bottom plate, standard with a range of […] (extended version). After preparation, 5 μl of sample dilutions or standard/blanks are transferred to the optical 384-well plate (assay plate) and the 10 μl reaction protocol is being followed. For measurement, the QuantStudio 12K Flex system is used. Raw data is extracted and IL-2 concentrations are calculated with the Thermo Fisher online app (apps.thermofisher.com/apps/proquantum).
ELISA is done following the manufacturer's manual (Thermo Fisher Scientific, #88-7025-88). Additional information: For the ELISA Nunc MaxiSorp 96 well plates are used. Frozen supernatant is thawed and centrifuged for 5 minutes at 1000×g, both steps at 4° C. […]

primary human T-cells [4] = experiment: T-cell proliferation assay (CellTiter-Glo); assay type: cell-based; details: CD3 condition; for Emax proliferation (% activation): 5 days, 20 μM reference compound A1 = 100%; for EC50: proliferation after 5 days, CellTiter-Glo, read-out: Tcell Proliferation CD3 EC50
Description: For coating of plates, PBS++ only or PBS++ with CD3 antibody (concentration depending on donor and determined by CD3 titrations) is added 100 μl/well to Poly-D Lysine coated 96-well plates. Plates are sealed and incubated at room temperature for 3 hours on a table-top rocking platform. After incubation, plates are washed once with PBS−− and filled with 40 μl/well culture medium only. Compounds are then added (see next section) to medium only plates. After 3 hours of culturing the T-cells, cells are filtered through a cell strainer (Miltenyi Biotech, #130-041-407), counted again and concentration is adjusted to 1.25 Mio/ml.
Cells are then seeded 80 μl/well to the 40 μl/well including dispensed compounds according to plate layout. By adding cells, compounds are further diluted 1:3, and resulting in 100 k cells/120 μl/well. After 48 hours 40 μl of supernatant is collected carefully from the top while not disturbing the cells. Cells are assessed for proliferation 5 days later by measuring […] using CellTiterGlo (Promega).
as §5, with “The DR was starting at 20 μM or 10 μM final top concentration and a dilution factor of 3.333.” left out
After 5 days, for detection of ATP which is directly proportional to the number of cells present per well, the CellTiter-Glo® 2.0 Reagent is used. After visual control for toxicity or precipitations of the tested compounds, the plates are equilibrated to room temperature for 45 minutes. CellTiter-Glo® 2.0 Reagent is equilibrated to room temperature as well. After equilibration, an equal amount of CellTiter-Glo reagent is added to the cells (80 μl/well) with an electronic multichannel pipette. Plates are placed on a rocking platform for 15 minutes at room temperature. After incubation, the bottom of the plates is sealed with backing tape. Luminescence is measured with PHERAstar FSX (interval time 0.5 sec, gain 3000, focal height 15 mm) and exported as CSV file for analysis in Genedata screener.
Calculations and Data Reporting CD3 and PBS plates were analysed separately in Genedata Screener using Roche Normalization PCT_POS_CTRL with DMSO set as Neutral Control and 20 μM of the reference compound A1 set as Stimulator Control/100%.
For CD3 conditions EC50 and Emax of the fitted sigmoidal curve were reported. If no curve could be fitted, the EC50 was reported as blank field and the Emax was based on individual data points. […] Compounds which activate unstimulated cells (see IL2 measurements) or compounds which negatively affected viability were flagged.

Sequence of DGKzeta (hDGKzeta(1-928)-N-His) (Q13574 whole entry): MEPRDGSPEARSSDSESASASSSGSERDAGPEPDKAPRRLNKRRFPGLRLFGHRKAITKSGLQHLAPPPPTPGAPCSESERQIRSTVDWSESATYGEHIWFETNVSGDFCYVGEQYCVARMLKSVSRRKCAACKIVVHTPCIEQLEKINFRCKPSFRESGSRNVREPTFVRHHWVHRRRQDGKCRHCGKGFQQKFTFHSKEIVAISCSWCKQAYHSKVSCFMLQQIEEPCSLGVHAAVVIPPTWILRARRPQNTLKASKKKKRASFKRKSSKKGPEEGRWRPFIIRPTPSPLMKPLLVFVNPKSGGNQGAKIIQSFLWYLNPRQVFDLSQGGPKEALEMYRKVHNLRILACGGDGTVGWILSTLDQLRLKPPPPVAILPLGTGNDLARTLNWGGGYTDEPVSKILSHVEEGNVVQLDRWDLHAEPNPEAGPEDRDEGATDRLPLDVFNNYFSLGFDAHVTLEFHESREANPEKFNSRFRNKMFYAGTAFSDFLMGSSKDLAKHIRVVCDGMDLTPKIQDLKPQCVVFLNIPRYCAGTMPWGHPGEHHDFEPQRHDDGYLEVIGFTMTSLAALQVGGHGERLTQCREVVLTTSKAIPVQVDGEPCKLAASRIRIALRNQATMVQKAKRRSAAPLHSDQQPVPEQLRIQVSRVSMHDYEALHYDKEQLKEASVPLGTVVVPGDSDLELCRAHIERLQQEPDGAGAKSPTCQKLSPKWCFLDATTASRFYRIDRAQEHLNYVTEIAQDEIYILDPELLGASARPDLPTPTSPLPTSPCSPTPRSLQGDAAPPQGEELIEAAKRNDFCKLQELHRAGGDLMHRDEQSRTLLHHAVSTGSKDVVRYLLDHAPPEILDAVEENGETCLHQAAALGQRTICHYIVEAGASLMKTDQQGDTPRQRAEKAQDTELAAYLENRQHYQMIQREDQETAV
Sequence of DGKalpha (hDGKalpha(1-735)-N-His) (P23743 whole entry): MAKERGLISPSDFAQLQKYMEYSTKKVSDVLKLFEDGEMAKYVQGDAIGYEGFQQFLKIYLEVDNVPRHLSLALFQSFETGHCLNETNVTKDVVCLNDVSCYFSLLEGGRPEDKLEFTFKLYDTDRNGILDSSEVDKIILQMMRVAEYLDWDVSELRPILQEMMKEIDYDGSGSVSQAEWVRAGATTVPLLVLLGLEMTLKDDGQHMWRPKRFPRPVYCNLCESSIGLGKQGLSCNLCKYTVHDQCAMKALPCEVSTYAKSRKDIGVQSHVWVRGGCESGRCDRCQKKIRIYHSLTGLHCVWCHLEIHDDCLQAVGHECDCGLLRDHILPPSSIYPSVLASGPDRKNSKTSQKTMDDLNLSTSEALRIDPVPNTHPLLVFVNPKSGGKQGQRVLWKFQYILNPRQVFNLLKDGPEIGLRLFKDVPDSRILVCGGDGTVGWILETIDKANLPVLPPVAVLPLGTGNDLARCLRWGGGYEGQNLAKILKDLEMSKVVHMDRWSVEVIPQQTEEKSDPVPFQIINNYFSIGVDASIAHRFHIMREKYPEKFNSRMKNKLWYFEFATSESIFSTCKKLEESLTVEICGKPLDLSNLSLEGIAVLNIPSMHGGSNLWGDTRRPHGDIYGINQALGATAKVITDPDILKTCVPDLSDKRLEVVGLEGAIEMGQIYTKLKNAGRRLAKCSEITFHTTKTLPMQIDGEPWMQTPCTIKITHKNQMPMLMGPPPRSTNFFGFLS

| SMILES | IC50 [1] [µM] | IC50 [2] [µM] | EC50 (primary human T-cells [3]; Homo sapiens, T-cell) [µM] | EC50 (primary human T-cells [3]) [µM] | Emax IL2 (% activation) (primary human T-cells [3]) | Emax proliferation (% activation) (primary human T-cells [4]) | EC50 (primary human T-cells [4]; Homo sapiens, T-cell, 120 h) [µM] | EC50 (primary human T-cells [4]) [µM] |
| --- | --- | --- | --- | --- | --- | --- | --- | --- |
| N[C@H]1CS(=O)(=O)c2cc(F)c(-c3cncc(C(F)(F)F)c3)cc2N(Cc2ccc(-c3noc(C(F)(F)F)n3)cc2)C1=O [Example 24, (3R)-3-amino-8-fluoro-1,1-diketo-5-[4-[5-(trifluoromethyl)-1,2,4-oxadiazol-3-yl]benzyl]-7-[5-(trifluoromethyl)-3-pyridyl]-2,3-dihydro-1λ6,5-benzothiazepin-4-one] | 55.2 | 23.7 | 1.94 |  | 235 | 141 | 0.699 |  |
| COC(=O)N1CC2CC(c3cnnc(-c4cc5c(cc4F)S(=O)(=O)C[C@H](N)C(=O)N5Cc4ccc(Cl)cc4)n3)(C2)C1 [Example 18, methyl 1-[3-[(3R)-3-amino-5-[(4-chlorophenyl)methyl]-8-fluoro-1,1,4-trioxo-2,3-dihydro-1λ6,5-benzothiazepin-7-yl]-1,2,4-triazin-5-yl]-3-azabicyclo[3.1.1]heptane-3-carboxylate] | 4.59 | 1.13 | 1.83 |  | 61 | 79 | 2.72 |  |
| CC(C)(C)c1cc(-c2cc3c(cc2F)S(=O)(=O)C[C@H](N)C(=O)N3Cc2ccc(Cl)cc2)cnn1 [Example 31, (3R)-3-amino-7-(6-tert-butylpyridazin-4-yl)-5-[(4-chlorophenyl)methyl]-8-fluoro-1,1-dioxo-2,3-dihydro-1λ6,5-benzothiazepin-4-one] | 35.2 | 3.85 | 1.09 |  | 80 | 112 | 0.501 |  |
| CC(C)(C)c1nncc(-c2cc3c(cc2F)S(=O)(=O)C[C@H](N)C(=O)N3Cc2ccc(-c3noc(C(F)(F)F)n3)cc2)n1 [Example 36, (3R)-3-amino-8-fluoro-1,1-dioxo-7(3R)-3-amino-7-(3-tert-butyl-1,2,4-triazin-5-yl)-8-fluoro-1,1-dioxo-5-[[4-[5-(trifluoromethyl)-1,2,4-oxadiazol-3-yl]phenyl]methyl]-2,3-dihydro-1λ6,5-benzothiazepin-4-one] | 24.5 | 1.5 | 1.56 |  | 88 | 108 | 1.35 |  |
| CS(=O)(=O)C(CCCl)c1cnnc(-c2cc3c(cc2F)S(=O)(=O)C[C@H](N)C(=O)N3Cc2ccc(Cl)cc2)n1 (stereo partly drawn) [Example 20, (3R)-3-amino-7-[5-(3-chloro-1-methylsulfonyl-propyl)-1,2,4-triazin-3-yl]-5-[(4-chlorophenyl)methyl]-8-fluoro-1,1-dioxo-2,3-dihydro-1λ6,5-benzothiazepin-4-one] | 1.66 | 1.73 | > 10 |  | 39 | 87 | 9.11 |  |

Second part, led by results:

| IC50 [1] [µM] | IC50 [2] [µM] | EC50 (primary human T-cells [3]; Homo sapiens, T-cell) [µM] | EC50 (primary human T-cells [3]) [µM] | SMILES | Emax IL2 (% activation) (primary human T-cells [3]) | Emax proliferation (% activation) (primary human T-cells [4]) | EC50 (primary human T-cells [4]; Homo sapiens, T-cell, 120 h) [µM] | EC50 (primary human T-cells [4]) [µM] |
| --- | --- | --- | --- | --- | --- | --- | --- | --- |
| 19.9 | 17.2 |  | 3.13 | CC(C)(C)c1cc(-c2cc3c(cc2F)S(=O)(=O)C[C@@H](N)C(=O)N3Cc2ccc(-c3noc(C(F)(F)F)n3)cc2)cnn1 [Example 35] | 480 | 132 |  | 1.04 |
| 31 | 8.77 | 6.78 |  | N[C@H]1CS(=O)(=O)c2cc(F)c(-c3cncc(N4CCOCC4)c3)cc2N(Cc2ccc(-c3noc(C(F)(F)F)n3)cc2)C1=O [Example 21, (3R)-3-amino-8-fluoro-1,1-diketo-7-(5-morpholino-3-pyridyl)-5-[4-[5-(trifluoromethyl)-1,2,4-oxadiazol-3-yl]benzyl]-2,3-dihydro-1λ6,5-benzothiazepin-4-one] | 131 | 140 | 3.76 |  |

— patent US20250236617A1, “BICYCLIC TETRAHYDROTHIAZEPINE DERIVATIVES” (Hoffmann-La Roche Inc., priority 2022, published 2025)
